# Bridge positions count the residues as written; N and C are the ends. Square brackets hold non-standard residues; d marks the D form. Peptide text beside a SMILES is read from it. * marks the point of attachment. ξ: configuration not given here. Phe(3-CONH2) = NC(=O)c1cccc(C[C@H](N)C(=O)O)c1; Phe(4-COOH) = N[C@@H](Cc1ccc(C(=O)O)cc1)C(=O)O; Bip = N[C@@H](Cc1ccc(-c2ccccc2)cc1)C(=O)O; Phe(3-Me) = Cc1cccc(C[C@H](N)C(=O)O)c1; Phe(4-F) = N[C@@H](Cc1ccc(F)cc1)C(=O)O; NH(CH2)12COOH = O=C(O)CCCCCCCCCCCCN*; Val(3-OH) = CC(C)(O)[C@H](N)C(=O)O; hArg = N=C(N)NCCCC[C@H](N)C(=O)O; 4Pal = N[C@@H](Cc1ccncc1)C(=O)O; 3Thi = N[C@@H](Cc1ccsc1)C(=O)O; Cha = N[C@@H](CC1CCCCC1)C(=O)O; Cit = NC(=O)NCCC[C@H](N)C(=O)O; Ile(3ξ) = CCC(C)[C@H](N)C(=O)O; Thr(3ξ) = CC(O)[C@H](N)C(=O)O; Dap(Me) = CNC[C@H](N)C(=O)O; Carboxymethyl = O=C(O)C*; Orn = NCCC[C@H](N)C(=O)O; Aun = NCCCCCCCCCCC(=O)O; Dab = NCC[C@H](N)C(=O)O; Dap = NC[C@H](N)C(=O)O; AEEA = NCCOCCOCC(=O)O
# Target: T1, PD-1/PD-L1 interaction (PE-labeled human PD-L1-Ig binding to Jurkat cell line over-expressing human PD-1) (Homo sapiens, UniProt Q15116)
# T1 construct: expressed in transfected cells; host or cells: Jurkat
# Assay: Jurkat-PD-1 Cell Binding High-Content Screening Assay (CBA)
# Assay type: cell-based
# Details: Jurkat cell line over-expressing human PD-1; PE-labeled PD-L1-Ig 20 nM final; read-out: Jurkat hPD1-PDL1 IC50
# How it was run: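 Binding of fluorescent PD-L1-Ig (20 nM final) to Jurkat-PD-1 cells was measured by automated imaging after 1 h, following a 2 h compound pre-treatment at 37° C.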
# T1 sequence (Q15116 25-288): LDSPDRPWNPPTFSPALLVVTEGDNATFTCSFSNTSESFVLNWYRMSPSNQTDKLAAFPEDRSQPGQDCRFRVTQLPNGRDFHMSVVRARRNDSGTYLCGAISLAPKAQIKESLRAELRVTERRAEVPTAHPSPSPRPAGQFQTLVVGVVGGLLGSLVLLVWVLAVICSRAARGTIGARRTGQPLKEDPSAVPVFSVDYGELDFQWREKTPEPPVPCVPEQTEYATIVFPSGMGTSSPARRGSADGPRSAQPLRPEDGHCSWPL
row,Compound,IC50 [nM]
1,CC(C)C[C@H]1NC(=O)[C@H](CN)NC(=O)[C@H](C(C)C)NC(=O)[C@H](Cc2ccc(-c3ccccc3)cc2)NC(=O)[C@H](C(C)C)NC(=O)[C@H](Cc2c[nH]c3ccccc23)NC(=O)[C@H](CC(=O)O)NC(=O)[C@H](Cc2ccc(OCC(=O)O)cc2)NC(=O)[C@H](Cc2ccsc2)NC(=O)CSC[C@@H](C(=O)NCCOCCOCC(=O)N[C@@H](CCCN)C(=O)NCCCCCCCCCCC(=O)O)NC(=O)[C@H](C(C)O)NC(=O)[C@H](C(C)C)NC(=O)[C@H](CC2CCCCC2)NC(=O)[C@H](CCN)NC1=O (stereo partly drawn) [Compound 3209] ({CH2CO}-[3Thi]Y(Carboxymethyl)DWV[Bip]V[Dap][dL][Dab][Cha]V[Thr(3ξ)]C[AEEA][Orn][Aun]-OH; thioether N-14),17.1
2,CNC[C@@H]1NC(=O)CSC[C@@H](C(=O)N[C@@H](CCN)C(=O)NCCCCCCCCCCC(=O)O)NC(=O)[C@H](C(C)O)NC(=O)[C@H](C(C)C)NC(=O)[C@H](CC2CCCCC2)NC(=O)[C@H](CCN)NC(=O)[C@@H](CC(C)C)NC(=O)[C@H](CCCN)NC(=O)[C@H](CCCCNC(C)=O)NC(=O)[C@H](Cc2ccc(-c3ccccc3)cc2)NC(=O)[C@H](CCCCNC(C)=O)NC(=O)[C@H](Cc2cccc(C)c2)NC(=O)[C@H](CC(=O)O)NC(=O)[C@H](Cc2ccc(OCC(=O)O)cc2)NC1=O (stereo partly drawn) [Compound 3594] ({CH2CO}-[Dap(Me)]Y(Carboxymethyl)D[Phe(3-Me)]K(Ac)[Bip]K(Ac)[Orn][dL][Dab][Cha]V[Thr(3ξ)]C[Dab][Aun]-OH; thioether N-14),16.2
3,Cc1cccc(C[C@@H]2NC(=O)[C@H](CC(=O)O)NC(=O)[C@H](Cc3ccc(C(=O)O)cc3)NC(=O)[C@H](Cc3ccncc3)NC(=O)CSC[C@@H](C(=O)N[C@@H](CCN)C(=O)NCCOCCOCC(=O)NCCOCCOCC(=O)NCCCCCCCCCCC(=O)O)NC(=O)[C@H](CCC(=O)O)NC(=O)[C@H](C(C)(C)O)NC(=O)[C@H](CC3CCCCC3)NC(=O)[C@H](CCN)NC(=O)[C@@H](CC(C)C)NC(=O)[C@H](CCCN)NC(=O)[C@H](Cc3ccc(C(=O)O)cc3)NC(=O)[C@H](Cc3ccc(-c4ccccc4)cc3)NC(=O)[C@H](Cc3ccc(C(=O)O)cc3)NC2=O)c1 [Compound 3764] ({CH2CO}-[4Pal][Phe(4-COOH)]D[Phe(3-Me)][Phe(4-COOH)][Bip][Phe(4-COOH)][Orn][dL][Dab][Cha][Val(3-OH)]EC[Dab][AEEA][AEEA][Aun]-OH; thioether N-14),238
4,CCC(C)[C@@H]1NC(=O)[C@H](CC2CCCCC2)NC(=O)[C@H](CCN)NC(=O)[C@@H](CC(C)C)NC(=O)[C@H](CCCN)NC(=O)[C@H](C(C)CC)NC(=O)[C@H](Cc2ccc(-c3ccccc3)cc2)NC(=O)[C@H](CC(C)C)NC(=O)[C@H](Cc2c[nH]c3ccccc23)NC(=O)[C@H](CC(=O)O)NC(=O)[C@H](Cc2ccc(OCC(=O)O)cc2)NC(=O)[C@H](Cc2cccc(C(N)=O)c2)NC(=O)CSC[C@@H](C(=O)N[C@@H](CC(N)=O)C(=O)NCCOCCOCC(=O)NCCCCCCCCCCC(=O)O)NC(=O)[C@H](CO)NC1=O (stereo partly drawn) [Compound 3116] ({CH2CO}-[Phe(3-CONH2)]Y(Carboxymethyl)DWL[Bip][Ile(3ξ)][Orn][dL][Dab][Cha][Ile(3ξ)]SCN[AEEA][Aun]-OH; thioether N-14),43.4
5,CC(C)C[C@H]1NC(=O)[C@H](CCCN)NC(=O)[C@H](C(C)C)NC(=O)[C@H](Cc2ccc(-c3ccccc3)cc2)NC(=O)[C@H](C(C)C)NC(=O)[C@H](Cc2c[nH]c3ccccc23)NC(=O)[C@H](CC(=O)O)NC(=O)[C@H](Cc2ccc(OCC(=O)O)cc2)NC(=O)[C@H](CN)NC(=O)CSC[C@@H](C(=O)N[C@@H](CCCN)C(=O)NCCCCCCCCCCC(=O)O)NC(=O)[C@H]([C@@H](C)O)NC(=O)[C@H](C(C)C)NC(=O)[C@H](CC2CCCCC2)NC(=O)[C@H](Cc2c[nH]cn2)NC1=O [Compound 1076] ({CH2CO}-[Dap]Y(Carboxymethyl)DWV[Bip]V[Orn][dL]H[Cha]VTC[Orn][Aun]-OH; thioether N-14),44.1
6,CC(C)C[C@H]1NC(=O)[C@H](CCCN)NC(=O)[C@H](C(C)C)NC(=O)[C@H](Cc2ccc(-c3ccccc3)cc2)NC(=O)[C@H](C(C)C)NC(=O)[C@H](Cc2c[nH]c3ccccc23)NC(=O)[C@H](CC(=O)O)NC(=O)[C@H](Cc2c[nH]cn2)NC(=O)[C@H](CCCCNC(=N)N)NC(=O)CSC[C@@H](C(=O)N[C@@H](CCN)C(=O)NCCCCCCCCCCC(=O)O)NC(=O)[C@H](CCCN)NC(=O)[C@H](C(C)C)NC(=O)[C@H](CC2CCCCC2)NC(=O)[C@H](CCN)NC1=O [Compound 3263] ({CH2CO}-[hArg]HDWV[Bip]V[Orn][dL][Dab][Cha]V[Orn]C[Dab][Aun]-OH; thioether N-14),55.3
7,Cc1cccc(C[C@@H]2NC(=O)[C@H](CC(=O)O)NC(=O)[C@H](Cc3ccc(F)cc3)NC(=O)[C@H](Cc3ccncc3)NC(=O)CSC[C@@H](C(=O)N[C@@H](CCN)C(=O)NCCCCCCCCCCC(=O)O)NC(=O)[C@H](CO)NC(=O)[C@H](C(C)(C)O)NC(=O)[C@H](CC3CCCCC3)NC(=O)[C@H](Cc3c[nH]cn3)NC(=O)[C@@H](CC(C)C)NC(=O)[C@H](CCCN)NC(=O)[C@H](Cc3ccc(OCC(=O)O)cc3)NC(=O)[C@H](Cc3ccc(-c4ccccc4)cc3)NC(=O)[C@H](Cc3ccc(OCC(=O)O)cc3)NC2=O)c1 [Compound 3734] ({CH2CO}-[4Pal][Phe(4-F)]D[Phe(3-Me)]Y(Carboxymethyl)[Bip]Y(Carboxymethyl)[Orn][dL]H[Cha][Val(3-OH)]SC[Dab][Aun]-OH; thioether N-14),128

# Now those with a lower IC50, led by results:
row,IC50 [nM],Compound
1,13.6,Cc1cccc(C[C@@H]2NC(=O)[C@H](CC(=O)O)NC(=O)[C@H](Cc3ccc(OCC(=O)O)cc3)NC(=O)[C@H](C(C)O)NC(=O)CSC[C@@H](C(=O)N[C@H](CC(N)=O)C(=O)NCCCCCCCCCCC(=O)O)NC(=O)[C@H](C(C)O)NC(=O)[C@H](C(C)C)NC(=O)[C@H](CC3CCCCC3)NC(=O)[C@H](CCN)NC(=O)[C@@H](CC(C)C)NC(=O)[C@H](CCCN)NC(=O)[C@H](CCCNC(N)=O)NC(=O)[C@H](Cc3ccc(-c4ccccc4)cc3)NC(=O)[C@H](C(C)C)NC2=O)c1 (stereo partly drawn) [Compound 3444] ({CH2CO}-[Thr(3ξ)]Y(Carboxymethyl)D[Phe(3-Me)]V[Bip][Cit][Orn][dL][Dab][Cha]V[Thr(3ξ)]C[dN][Aun]-OH; thioether N-14)
2,12.7,CC(C)C[C@H]1NC(=O)[C@H](CCCN)NC(=O)[C@H](C(C)C)NC(=O)[C@H](Cc2ccc(-c3ccccc3)cc2)NC(=O)[C@H](C(C)C)NC(=O)[C@H](Cc2c[nH]c3ccccc23)NC(=O)[C@H](CC(=O)O)NC(=O)[C@H](Cc2ccc(OCC(=O)O)cc2)NC(=O)[C@H](CCCCNC(=N)N)NC(=O)CSC[C@@H](C(=O)NCC(=O)NCCOCCOCC(=O)N[C@@H](CCCN)C(=O)NCCCCCCCCCCC(=O)O)NC(=O)[C@H](CCCCN)NC(=O)[C@H](C(C)C)NC(=O)[C@H](CC2CCCCC2)NC(=O)[C@H](CC(N)=O)NC1=O [Compound 3204] ({CH2CO}-[hArg]Y(Carboxymethyl)DWV[Bip]V[Orn][dL]N[Cha]VKCG[AEEA][Orn][Aun]-OH; thioether N-14)
3,11.3,CC(C)C[C@H]1NC(=O)[C@H](CCCN)NC(=O)[C@H](C(C)C)NC(=O)[C@H](Cc2ccc(-c3ccccc3)cc2)NC(=O)[C@H](C(C)C)NC(=O)[C@H](Cc2c[nH]c3ccccc23)NC(=O)[C@H](CC(=O)O)NC(=O)[C@H](Cc2ccc(OCC(=O)O)cc2)NC(=O)[C@H](CN)NC(=O)CSC[C@@H](C(=O)N[C@@H](CCN)C(=O)NCCCCCCCCCCC(=O)O)NC(=O)[C@H](CCCN)NC(=O)[C@H](C(C)O)NC(=O)[C@H](CC2CCCCC2)NC(=O)[C@H](CCN)NC1=O (stereo partly drawn) [Compound 3677] ({CH2CO}-[Dap]Y(Carboxymethyl)DWV[Bip]V[Orn][dL][Dab][Cha][Thr(3ξ)][Orn]C[Dab][Aun]-OH; thioether N-14)
4,9.5,Cc1cccc(C[C@@H]2NC(=O)[C@H](CC(=O)O)NC(=O)[C@H](Cc3ccc(OCC(=O)O)cc3)NC(=O)[C@H](CN)NC(=O)CSC[C@@H](C(=O)NCCOCCOCC(=O)N[C@@H](CCN)C(=O)NCCCCCCCCCCC(=O)O)NC(=O)[C@H](C(C)O)NC(=O)[C@H](C(C)C)NC(=O)[C@H](CC3CCCCC3)NC(=O)[C@H](CCN)NC(=O)[C@@H](CC(C)C)NC(=O)[C@H](CCCN)NC(=O)[C@H](Cc3ccc(O)cc3)NC(=O)[C@H](Cc3ccc(-c4ccccc4)cc3)NC(=O)[C@H](C(C)C)NC2=O)c1 (stereo partly drawn) [Compound 2591] ({CH2CO}-[Dap]Y(Carboxymethyl)D[Phe(3-Me)]V[Bip]Y[Orn][dL][Dab][Cha]V[Thr(3ξ)]C[AEEA][Dab][Aun]-OH; thioether N-14)
5,9.1,Cc1cccc(C[C@@H]2NC(=O)[C@H](CC(=O)O)NC(=O)[C@H](Cc3ccc(OCC(=O)O)cc3)NC(=O)[C@H](CCCNC(=N)N)NC(=O)CSC[C@@H](C(=O)N[C@@H](CCN)C(=O)NCCOCCOCC(=O)NCCCCCCCCCCCCC(=O)O)NC(=O)[C@H](CO)NC(=O)[C@H](C(C)(C)O)NC(=O)[C@H](CC3CCCCC3)NC(=O)[C@H](CCN)NC(=O)[C@@H](CC(C)C)NC(=O)[C@H](CCCN)NC(=O)[C@H](Cc3ccc(OCC(=O)O)cc3)NC(=O)[C@H](Cc3ccc(-c4ccccc4)cc3)NC(=O)[C@H](Cc3ccc(OCC(=O)O)cc3)NC2=O)c1 [Compound 2253] ({CH2CO}-RY(Carboxymethyl)D[Phe(3-Me)]Y(Carboxymethyl)[Bip]Y(Carboxymethyl)[Orn][dL][Dab][Cha][Val(3-OH)]SC[Dab][AEEA]-{NH(CH2)12COOH}; thioether N-14)
6,5.4,CC(C)C[C@H]1NC(=O)[C@H](CCCN)NC(=O)[C@H](C(C)C)NC(=O)[C@H](Cc2ccc(-c3ccccc3)cc2)NC(=O)[C@H](C(C)C)NC(=O)[C@H](Cc2c[nH]c3ccccc23)NC(=O)[C@H](CC(=O)O)NC(=O)[C@H](Cc2ccc(OCC(=O)O)cc2)NC(=O)[C@H](CN)NC(=O)CSC[C@@H](C(=O)NCCOCCOCC(=O)NCCCCCCCCCCC(=O)O)NC(=O)[C@H](CCCCN)NC(=O)[C@H](C(C)C)NC(=O)[C@H](CC2CCCCC2)NC(=O)[C@H](CCN)NC1=O [Compound 2565] ({CH2CO}-[Dap]Y(Carboxymethyl)DWV[Bip]V[Orn][dL][Dab][Cha]VKC[AEEA][Aun]-OH; thioether N-14)
